Holding throughout (test): in vitro antibacterial activity, MIC in microtiter
One experiment deals with S. aurens Smith (L 819). It is filed as cell-based. Particulars: Iso-Sensitest broth, 0.01% bovine serum albumin, 37° C. 18-24 hours. How it is done: The in vitro antibacterial activity of the compounds is determined by means of standard […] tests in microtiter. Iso-Sensitest broth (Oxoid) is used for all bacteria except streptococci (Todd-[…] broth, Difco) and enterococci (Mueller-Hinton, Difco). Broth cultures are diluted so that the final inoculum is about 5×10^5 cfu/ml (colony forming units per ml).

Experiment [1] has as its system Strep. pyogenes C203 (L 49). It is filed as cell-based. The conditions noted are these: Todd-Wewitt broth, 0.01% bovine serum albumin, 37° C. 18-24 hours. As for the experimental part: (§1) The in vitro antibacterial activity of the compounds is determined by means of standard […] tests in microtiter. Iso-Sensitest broth (Oxoid) is used for all bacteria except streptococci (Todd-Wewitt broth, Difco) and enterococci (Mueller-Hinton, Difco). Broth cultures are diluted so that the final inoculum is about 5×10^5 cfu/ml (colony forming units per ml). All broth microdilution MICs are performed in the presence of 0.01% bovine serum albumin (Pentax fraction V, Sigma).

The test system of experiment [2] is Strep. pneumoniae UC41 (L 44). In kind it is cell-based. The conditions noted are these: Todd-Wewitt broth, 0.01% bovine serum albumin, 37° C. 18-24 hours. How it is done:
as §1

Experiment [3] relates to S. epidermidis clin. isol. (L 533). In kind it is cell-based. The conditions noted are these: Iso-Sensitest broth, 0.01% bovine serum albumin, 37° C. 18-24 hours. As for the experimental part:
as §1

Experiment [4] deals with Staph. aureus Tour (L 165). In kind it is cell-based. The conditions noted are these: Iso-Sensitest broth, 0.01% bovine serum albumin, 37° C. 18-24 hours. As for the experimental part: as §1
In experiment [5] the test system is Enterococcus faecalis ATCC 7,080 (L 149). It is filed as cell-based. Particulars: Mueller-Hinton, 0.01% bovine serum albumin, 37° C. 18-24 hours. How it is done: as §1
The test system of experiment [6] is S. epidermidis ATCC 12,228 (L 147). In kind it is cell-based. The conditions noted are these: Iso-Sensitest broth, 0.01% bovine serum albumin, 37° C. 18-24 hours. How it is done: as §1
For experiment [7], the system named is S. haemolyticus clin, isol. (L 602). In kind it is cell-based. The conditions noted are these: Iso-Sensitest broth, 0.01% bovine serum albumin, 37° C. 18-24 hours. As for the experimental part: as §1
The test system of experiment [8] is S. aureus clin. isol. (L 561). It is filed as cell-based. Particulars: Iso-Sensitest broth, 0.01% bovine serum albumin, 37° C. 18-24 hours. As for the experimental part:
as §1

Experiment [9] has as its system E. faecalis clin. isol. (L 502). It is filed as cell-based, Enterococcus faecalis. Particulars: Mueller-Hinton, 0.01% bovine serum albumin, 37° C. 18-24 hours. As for the experimental part: as §1

In brackets after ≈: the same amount, converted by molar mass.

Consider `N[C@H]1C(=O)N[C@@H]2Cc3ccc(c(Cl)c3)Oc3cc4cc(c3O)Oc3ccc(cc3Cl)[C@@H](O)[C@@H]3NC(=O)[C@H](NC(=O)[C@@H]4NC(=O)[C@@H](NC2=O)c2cc(O)cc(c2)Oc2cc1ccc2O)c1ccc(O)c(c1)-c1c(O)cc(O)cc1[C@@H](C(=O)O)NC3=O` [teicoplanin aglycon], for which the minimum inhibitory concentration (MIC) against S. aurens Smith (L 819) came out at 0.06 µg/mL (≈ 0.05 µM); in [1], 0.13 µg/mL (≈ 0.108 µM); in [2] it was 0.13 µg/mL (≈ 0.108 µM); in [3], 0.016 µg/mL (≈ 0.0133 µM); in experiment [4] it was 0.13 µg/mL (≈ 0.108 µM); in experiment [5], 0.13 µg/mL (≈ 0.108 µM). The MIC in experiment [6] was 0.06 µg/mL (≈ 0.05 µM); in [7] it was 0.25 µg/mL (≈ 0.209 µM); in experiment [8] it was 0.13 µg/mL (≈ 0.108 µM).

Turning to “(L-phenylalanyl)^3 -(D-lysyl)^15 -aglucoteicoplanin dalbaheptide methyl ester”, the MIC worked out at 0.13 µg/mL in the experiment on S. aurens Smith (L 819); 16 µg/mL in experiment [9]; 0.25 µg/mL in experiment [1]; 0.13 µg/mL in experiment [2]; 0.13 µg/mL in [3]; 0.13 µg/mL in [4]. Besides, the MIC in [5] is 0.5 µg/mL; in experiment [6], 0.13 µg/mL; in experiment [7] it was 0.5 µg/mL; in experiment [8] it was 0.06 µg/mL.

For the compound teicoplanin, the minimal inhibitory concentration (MIC) was 0.25 µg/mL against S. aurens Smith (L 819); 0.13 µg/mL in experiment [1]; 0.13 µg/mL in [2]; 8 µg/mL in [3]; 0.13 µg/mL in [4]; 0.13 µg/mL in experiment [5]. Moreover, the results for the MIC in experiment [6], in [7] and in experiment [8] were 8 µg/mL, 32 µg/mL and 8 µg/mL, respectively.

The MIC is the least concentration at which growth counts as inhibited.

For the origin of these results see patent publication US5684127A, “Tetrapeptides deriving from dalbaheptide antibiotics” (Gruppo Lepetit SpA, priority 1995, dated 1997).
